# ChEMBL document CHEMBL5604062, “ASAP - ZIKV NS2B-NS3 protease fluorescence dose response” (2024)
# “And” between values parts separate entries of the source, which are not always exact repeats. Identical values can stand only once.
# What was measured:
# Nonstructural protein 3 [1] = target: T1, Nonstructural protein 3 (Zika virus, UniProt A0A024AXB9); test: Functional biochemical assay to identify treatments for viral infectious disease that targets Zika NS2B-NS3 protease. Utilizing a direct enzyme activity measurement method, reading the fluorescence intensity is used to characterize the relative potency of inhibitors as IC50. Synthetic construct has been made based on Zika virus (strain PRVABC59) by Centre for Medicines Discovery, University of Oxford, and the assay has been performed by Enamine biological services, Bienta Ltd.The protocol is publicly available: dx.doi.org/10.17504/protocols.io.36wgqn273gk5/v1
# T1 sequence (A0A024AXB9 whole entry): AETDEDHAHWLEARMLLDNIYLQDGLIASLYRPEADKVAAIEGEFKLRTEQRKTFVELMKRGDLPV
# Nonstructural protein 3 [2] = target: T1, Nonstructural protein 3; test: Functional biochemical assay to identify treatments for viral infectious disease that targets Zika NS2B-NS3 protease. Utilizing a direct enzyme activity measurement method, reading the fluorescence intensity is used to characterize the relative potency of inhibitors as IC50.; design: species or system PRVABC59
SMILES,IC50 (Nonstructural protein 3 [1]),IC50 (Nonstructural protein 3 [2])
N#Cc1cccc(-c2nc3c(C(=O)Nc4ccncc4)cc(Cl)cc3[nH]2)c1,> 25000 nM,–
CC(=O)N(c1ccc2c(c1)CNC2)[C@]1(c2cc(Cl)cc(C3CC3)c2)CCCN(C)C1=O,> 25000 nM,> 25000 nM
O=C1Cc2c(cccc2C(=O)Nc2ccnn2Cc2ccncc2)N1,> 25000 nM,> 25000 nM
Cc1c(C(=O)Nc2cccc(Cn3cccn3)c2)cc(C2CC2)n1C,> 25000 nM,> 25000 nM
O=C1Cc2c(cccc2C(=O)Nc2cccc(-c3cn[nH]c3)c2)N1,> 25000 nM,> 25000 nM
O=C(NCC(F)F)[C@H](Nc1ccc2c(c1)CNC2)c1cc(Br)cc2ccccc12,143 nM and 147 nM,99 nM and 77 nM
CCc1cnc2c(NC(=O)c3cccc4c3CC(=O)N4)cnn2c1,> 25000 nM,> 25000 nM
O=C(NC1CCOCC1)[C@H](Nc1ccc2c(c1)CNC2)c1cc(Cl)cc(C2CC2)c1,1020 nM and 213 nM,–
Cn1nc(CNc2cc([C@H]3CCOC3)ccn2)cc1C1CC1,> 25000 nM,> 25000 nM
O=C1C[C@H](c2cccc(-c3cc(F)cc(C(=O)Nc4ccc5c(c4)CNC5)c3)c2)N1,130 nM and 131 nM,77 nM and 66 nM
N=C(N)NCCC[C@H](NC(=O)c1nccs1)C(=O)N[C@@H](CCCCN)C(=O)N[C@@H](C(N)=O)c1ccc(OCc2ccc(C(F)(F)F)cc2)cc1,6210 nM and 4390 nM and 8320 nM and 7700 nM and 6310 nM and 6150 nM and 5910 nM and 5860 nM and 5590 nM,–
O=C1Cc2c(cccc2C(=O)Nc2ccc(N3CCOC3=O)nc2)N1,> 25000 nM,> 25000 nM
Clc1cc(CNc2ccc3c(n2)CNC3)c2cn[nH]c2c1,> 25000 nM,> 25000 nM
Cc1c(C(=O)Nc2ccc3c(c2)C[C@H](C(N)=O)O3)cc(C2CC2)n1C,> 25000 nM,> 25000 nM
Cc1c(C(=O)Nc2ccc3c(c2)C(=O)NC3)cc(C2CC2)n1C,> 25000 nM,> 25000 nM
O=C1Cc2c(cccc2C(=O)Nc2cc(Br)c3ncnn3c2)N1,> 25000 nM,> 25000 nM
N#Cc1cccc(-c2nc3c(C(=O)NCc4ccccc4)cc(Cl)cc3[nH]2)c1,> 25000 nM,–
O=C1Cc2c(cccc2C(=O)Nc2cccc(Cc3nn[nH]n3)c2)N1,> 25000 nM,> 25000 nM
CC(C)CNC(=O)c1cc(Cl)cc2[nH]c(-c3cccc(C#N)c3)nc12,> 25000 nM,> 25000 nM
O=C1Nc2ccc(C(=O)Nc3ccc4c(c3)CNC4)cc2C1=O,8150 nM,1470 nM and 1730 nM
Cc1c(C(=O)Nc2cccc(-c3ccoc3)c2)cc(C2CC2)n1C,> 25000 nM,> 25000 nM

SMILES,IC50 (Nonstructural protein 3 [1]),IC50 (Nonstructural protein 3 [2])
CNC(=O)c1cc(Br)cc([C@H](Nc2ccc3c(c2)CNC3)C(=O)NCC(F)F)c1,104 nM and 88 nM,19 nM and < 12 nM
O=C(NCC(F)F)[C@H](Nc1ccc2c(c1)CNC2)c1cc(Br)cc2cn[nH]c12,141 nM and 127 nM,29 nM and 20 nM
NCc1csc2cc(C(=O)Nc3ccc4c(c3)CNC4)ccc12,216 nM,125 nM and 219 nM
CC(C)(C)OC(=O)N1Cc2ccc(N[C@H](C(=O)O)c3cc(Cl)cc4[nH]ncc34)cc2C1,> 25000 nM,> 25000 nM
O=C(Nc1cnc2c(c1)CNC2)c1cc(F)cc2[nH]ncc12,83 nM,27 nM and 15 nM
NC(=O)c1cn(C2CCCC2)nc1NC(=O)c1cccc2c1CC(=O)N2,> 25000 nM,> 25000 nM
NC(=O)COc1ccc(Br)cc1[C@H](Nc1ccc2c(c1)CNC2)C(=O)NCC(F)F,193 nM and 233 nM,69 nM and 55 nM
N#CCOc1ccc(Br)cc1[C@H](Nc1ccc2c(c1)CNC2)C(=O)NCC(F)F,135 nM and 143 nM,57 nM and 42 nM
Cn1nc(CNc2cc(-c3cccnc3)ccn2)cc1C1CC1,> 25000 nM,> 25000 nM
O=C(Nc1ccc2c(c1)CNC2)c1cccc2c(C3CNC3)n[nH]c12,89 nM,17 nM and 16 nM and < 12 nM
O=C(Nc1cc2c(cn1)CNC2)c1cc(F)cc2[nH]ncc12,163 nM,77 nM and 55 nM
CO[C@H]1Cc2ccc(NC(=O)c3cc(C4CC4)n(C)c3C)cc2C1,> 25000 nM,> 25000 nM
Cc1c(C(=O)Nc2ccc3c(c2)CN(C)C3=O)cc(C2CC2)n1C,> 25000 nM,> 25000 nM
Nc1ccncc1-c1cc(F)cc(C(=O)Nc2ccc3c(c2)CNC3)c1,146 nM,54 nM and 38 nM
Cc1c(C(=O)Nc2ccc3c(c2)CCC(=O)N3CC2CCC2)cc(C2CC2)n1C,> 25000 nM,> 25000 nM
N#Cc1cccc(-c2nc3c(C(=O)NCc4ccccn4)cc(Cl)cc3[nH]2)c1,> 25000 nM,–
O=C(Nc1ccc2c(c1)CNC2)c1cc(Cl)cc2[nH]c(-c3cccc(F)c3)nc12,4210 nM,–
N#Cc1cccc(-c2nc3c(C(=O)Nc4cccnc4)cc(Cl)cc3[nH]2)c1,> 25000 nM,–
N#Cc1cccc(-c2nc3c(C(=O)NCc4cccnc4)cc(Cl)cc3[nH]2)c1,> 25000 nM,–
O=C(Nc1ccc2c(c1)CNC2)c1cc(Cl)cc2[nH]c(-c3ccccc3)nc12,2520 nM,–
NC[C@H]1C[C@H](NC(=O)[C@@H](NC(=O)OCc2ccccc2)c2ccc(OCc3ccccc3)cc2)C1,–,> 99500 nM

SMILES,IC50 (Nonstructural protein 3 [1]),IC50 (Nonstructural protein 3 [2])
c1cc(CN2CCC(c3c[nH]c4cccnc34)CC2)c2[nH]ncc2c1,–,> 99500 nM
CCCN1C(=O)[C@](Nc2ccc3c(c2)CNC3)(C(=O)NC)c2ccccc21,–,> 25000 nM
N#CC1(S(=O)(=O)N2CCC([C@H](NC(=O)OCc3ccccc3)C(=O)Nc3cccc(CN)c3)CC2)CCC1,–,97600 nM
NCc1cccc(NC(=O)[C@@H](NC(=O)OCc2ccccc2)c2cccc(-c3ccc(CN)cc3F)c2)c1,–,32300 nM
Cn1nc(C2CC2)c2c(C(=O)Nc3cccc(CN)c3)cc(C3CC3)nc21,–,> 99500 nM
NCc1ccc2nc(-c3cc(Cl)cc(NC(=O)OCc4ccccc4)c3)c(CCCO)cc2c1,–,51900 nM
Cc1c(C(=O)Nc2cc(C(=O)N3CCOC[C@H](O)C3)ccn2)cc(C2CC2)n1C,–,> 25000 nM
Cc1nc([C@H]2CCCNC2)[nH]c1C(=O)Nc1ccccn1,–,> 99500 nM
Clc1ccc2c(CN3CCC(c4c[nH]c5ncccc45)CC3)c[nH]c2c1,–,24900 nM
CSc1cc(Cl)cc(C(=O)Nc2cccc(-n3nn[nH]c3=O)c2)c1,–,> 99500 nM
CNC(=O)C(=O)/C=C/c1ccccc1C,–,> 198000 nM
Cc1nocc1S(=O)(=O)N[C@H](C(=O)Nc1cccc(CN)c1)c1ccc(OCc2ccccc2)cc1,–,> 99500 nM
Cc1c(C(=O)Nc2cc(-c3cnn(C)c3)ccn2)cc(C2CC2)n1C,–,> 99500 nM
NCc1ccc(C#CCO)c(NC(=O)c2cc(Cl)cc(NC(=O)OCc3ccccc3)c2)c1,–,30600 nM
Cc1nc(-c2ccc(Cl)cc2)sc1C(=O)Nc1cccc(CN)c1,–,91100 nM
C[C@@H](N)c1cccc(NC(=O)[C@@H](NC(=O)OCc2ccccc2)c2ccc(OCc3ccccc3)cc2)c1,–,33600 nM
Cc1csc(COc2cccc([C@H](NC(=O)OCc3ccccc3)C(=O)Nc3cccc(CN)c3)c2)n1,–,29800 nM
Cc1cc(Cl)c(C)c(C(=O)O)c1NS(=O)(=O)c1ccc(Oc2ccccc2Cl)cc1,–,93800 nM
O=C1Cc2c(cccc2C(=O)N[C@H]2CCc3ncsc3C2)N1,–,> 25000 nM

# The remaining compounds from weak to strong by IC50 (Nonstructural protein 3 [2]), led by results:
IC50 (Nonstructural protein 3 [1]),IC50 (Nonstructural protein 3 [2]),SMILES
–,17800 nM,N#Cc1ccc2[nH]cc(CN3CCC(c4cscn4)CC3)c2c1
–,15000 nM,C[C@H]1C[C@H](c2cccc(CN)c2)[C@@H](c2cc(Cl)cc(NC(=O)OCc3ccccc3)c2)C1
–,14200 nM,CCOc1cccc(-c2ccc(S(=O)(=O)Nc3cc4c(cc3C(=O)O)CCC4)cc2)c1
–,12000 nM,N#Cc1ccccc1-c1ccc([C@H](NC(=O)OCc2ccccc2)C(=O)Nc2cccc(CN)c2)cc1
4160 nM and 3340 nM,10700 nM,C[C@H]1C(=O)Nc2ccc(C(=O)Nc3ccc4c(c3)CNC4)cc21
–,10300 nM,NCc1ccc(NC(=O)c2cc(Cl)cc(NC(=O)OCc3ccccc3)c2)cc1
–,9320 nM,C=CC[C@H](Nc1cccc(-c2nn[nH]n2)c1)c1cc(Cl)cc(NC(=O)OCc2ccccc2)c1
–,9310 nM,Fc1cc(CNc2ccc3c(c2)CNC3)c2cc[nH]c2c1
–,7260 nM,C[C@H]1CNC[C@@H]1c1ccc(NC(=O)c2cc(Cl)cc(NC(=O)OCc3ccccc3)c2)cc1
–,6140 nM,O=C1COc2cc(C(=O)Nc3ccc4c(c3)CNC4)ccc2N1
–,5990 nM,O=C(Nc1cc(Cl)cc(C(=O)Nc2ccc(C3CNC3)cc2)c1)OCc1ccccc1
3460 nM,1870 nM,CC(C)n1nncc1-c1cc(F)cc(C(=O)Nc2ccc3c(c2)CNC3)c1
5500 nM,1330 nM,O=C(NCC(F)F)[C@H](Nc1ccc2c(n1)CNC2)c1cc(Cl)cc(C2CC2)c1
4620 nM,1210 nM,COCCN(C)C(=O)[C@H](Nc1ccc2c(c1)CNC2)c1cc(Cl)cc(C2CC2)c1
–,1160 nM,CNC(=O)[C@H](Nc1cc(CN)cc(C(=O)O)c1)c1cc(Cl)cc(NC(=O)OCc2ccccc2)c1
–,1130 nM,Cn1cc2c(C(=O)Nc3ccc4c(c3)CNC4)cccc2n1
–,456 nM,O=C(Nc1ccc2c(c1)CNC2)c1cccc2sccc12
–,429 nM,O=C(Nc1ccc2c(c1)CNC2)c1cc(F)c2[nH]c(=O)[nH]c2c1
2100 nM,401 nM,O=C([C@H](Nc1ccc2c(c1)CNC2)c1cc(Cl)cc(C2CC2)c1)N1CCOCC1
255 nM and 550 nM,215 nM,O=C(Nc1ccc2c(c1)CN[C@H]2C1CC1)c1cc(F)cc2[nH]ncc12
198 nM and 238 nM,212 nM,O=C(NCC(F)F)[C@H](Nc1ccc2c(c1)CNC2)c1cc(Br)ccc1Oc1ccc(Cl)c(Cl)c1
999 nM and 1080 nM,187 nM,CNC(=O)C[C@H]1NCc2cc(NC(=O)c3cc(Cl)cc4[nH]ncc34)ccc21
–,186 nM,CC(C)n1ncc2c(C(=O)Nc3ccc4c(c3)CNC4)cc(Cl)cc21
1060 nM and 2300 nM,185 nM,CC(C)NC(=O)C[C@H]1NCc2cc(NC(=O)c3cc(Cl)cc4[nH]ncc34)ccc21
260 nM,182 nM,O=C(O)COc1ccc(Cl)cc1[C@H](Nc1ccc2c(c1)CNC2)C(=O)NCC(F)F
–,136 nM,O=C(Nc1ccc2c(c1)CNC2)c1cc(Cl)cc2c1cnn2C[C@H]1CCCO1
53 nM and 76 nM,16 nM,O=C(NCC(F)F)[C@H](Nc1ccc2c(c1)CNC2)c1cc(Cl)cc2cccnc12
